From patent US8846698B2, “Pyrrolo[2,3-d]pyrimidine tropomysin-related kinase inhibitors” (Pfizer Limited, priority 2011, dated 2014) come the findings set out here.

One data set addresses MDR1 (Homo sapiens (Human), UniProt P08183). Description: MDCK-MDR1 assay (in vitro brain penetration). It is filed as in vitro ADME. To be noted: for Papp B→A / Papp A→B: human; for Papp B→A: MDCK-MDR1, MDCK-MDR1, B to A, read-out: MDCK MDR1 Papp BA; for Papp A→B / MDCK MDR1 Papp AB: MDCK-MDR1, A to B; for Papp A→B: read-out: MDCK MDR1 Papp AB; for MDCK MDR1 Papp BA: MDCK-MDR1, B to A. From the text:
MDCK-MDR1: MDCK-MDR1 data were collected according to the method described in “Are MDCK Cells Transfected with the Human MDR1 Gene a Good Model of the Human Intestinal Mucosa?”
http://www.springerlink.com/content/qfhqlqbr4fnp3 khf/fulltext.pdf

The target of data set [1] is T1, TRKA (Homo sapiens (Human), UniProt P04629). Kind of data set: Isolated TRK enzyme assay (HTRF KinEASE-TK), TRKA. The conditions noted are these: isolated TRKA enzyme; read-out: TrkA enzyme potency. It is filed as biochemical.
Target sequence in this assay (P04629 441-796): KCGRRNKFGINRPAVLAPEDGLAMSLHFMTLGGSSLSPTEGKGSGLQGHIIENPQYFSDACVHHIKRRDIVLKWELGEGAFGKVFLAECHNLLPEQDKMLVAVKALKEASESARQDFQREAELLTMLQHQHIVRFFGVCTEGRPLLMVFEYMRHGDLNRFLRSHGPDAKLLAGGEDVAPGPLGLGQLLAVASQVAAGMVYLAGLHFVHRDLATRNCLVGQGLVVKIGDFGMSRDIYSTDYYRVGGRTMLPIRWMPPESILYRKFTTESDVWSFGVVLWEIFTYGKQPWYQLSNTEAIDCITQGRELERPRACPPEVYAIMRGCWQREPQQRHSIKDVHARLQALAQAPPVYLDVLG
The target in data set [2] is T1, TRKA. Description: Cell based DiscoveRx PathHunter antagonist assay, TRKA cell line. To be noted: read-out: TrkA cell potency. Here is the method:
(§1) After the Detection Reagent addition, plates are covered and incubated at room temperature for 60 minutes. […] Test compound data are expressed as percentage inhibition defined by HPE and ZPE values for each plate. Percentage inhibition in the presence of test compound is plotted against compound concentration on a log scale to determine an IC50 from the resultant sigmoid curve. Cell Based Assays were carried out using Cell lines from DiscoveRx utilising their PathHunter technology and reagents in an antagonist assay:
(§2) The assays are based upon DiscoveRx's proprietary Enzyme Fragment Complementation (EFC) technology. In the case of the TRK cell lines, the enzyme acceptor (EA) protein is fused to a SH2 protein and the TRK receptor of interest has been tagged with a Prolink tag.
(§3) Upon neurotrophin binding, the TRK receptor becomes phosphorylated, and the tagged SH2 protein binds.
(§4) This means that the IC50 is a good measure of affinity and should be unaffected by concentration neurotrophin stimulant.
(§5) Cryopreserved PathHunter cells are used from either in-house produced batches or bulk batches bought directly from DiscoveRx. Cryopreserved cells are resuscitated, spun 1000 rpm for 4 min to remove freezing media, and resuspended in MEM+0.5% horse serum (both Invitrogen) to 5e^5 cells/ml. The cells are then plated using a Multidrop into Greiner white tissue culture treated plates at 20 ul/well and incubated for 24 h at 37° C., 5% CO2, high humidity. On the day of the assay, the cell plates are allowed to cool to room temperature for 30 min prior to the assay.
(§6) Plates containing 1 ul of serially diluted compound, standard and HPE/ZPE are diluted 1/66 in assay buffer (PBS minus Ca^2+, minus Mg^2+ with 0.05% pluronic F127) using a Wellmate. […] The plates are left at room temperature for a further 2 hours before addition of 10 ul of the DiscoveRx PathHunter detection reagent (made up by adding 1 part Galacton Star, 5 parts Emerald II and 19 parts Cell Assay Buffer as per the manufacturer's instructions).
(§7) After reagent addition, plates are covered and incubated at room temperature for 60 minutes. Luminescence signal is read using an Envision. Test compound data are expressed as percentage inhibition defined by HPE and ZPE values for each plate. Percentage inhibition in the presence of test compound is plotted against compound concentration on a log scale to determine an […] from the resultant sigmoid curve.
Target sequence in this assay (P04629 33-796): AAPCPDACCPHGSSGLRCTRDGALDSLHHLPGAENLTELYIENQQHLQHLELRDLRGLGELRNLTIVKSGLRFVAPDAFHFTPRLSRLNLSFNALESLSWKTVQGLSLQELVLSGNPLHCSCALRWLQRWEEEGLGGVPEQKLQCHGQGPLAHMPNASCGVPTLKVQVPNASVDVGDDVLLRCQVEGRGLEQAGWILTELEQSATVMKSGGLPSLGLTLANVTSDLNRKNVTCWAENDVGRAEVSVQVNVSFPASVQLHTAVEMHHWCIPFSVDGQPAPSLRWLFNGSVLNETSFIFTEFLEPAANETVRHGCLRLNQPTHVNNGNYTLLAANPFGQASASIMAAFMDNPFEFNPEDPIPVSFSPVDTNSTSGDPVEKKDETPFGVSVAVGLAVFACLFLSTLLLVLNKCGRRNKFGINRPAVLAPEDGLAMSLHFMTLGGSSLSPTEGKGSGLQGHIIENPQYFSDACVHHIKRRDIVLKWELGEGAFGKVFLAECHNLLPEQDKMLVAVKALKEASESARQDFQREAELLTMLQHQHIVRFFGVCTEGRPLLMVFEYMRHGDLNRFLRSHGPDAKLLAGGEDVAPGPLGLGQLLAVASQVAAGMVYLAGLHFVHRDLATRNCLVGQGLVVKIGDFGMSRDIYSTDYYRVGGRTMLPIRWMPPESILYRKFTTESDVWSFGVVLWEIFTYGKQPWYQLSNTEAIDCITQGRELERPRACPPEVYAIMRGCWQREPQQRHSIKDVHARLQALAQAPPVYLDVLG

Another data set addresses TRKB (Homo sapiens (Human), UniProt Q16620). Description: cell-based. To be noted: TrkB cell potency, TRKB PathHunter cell line. Here is the method:
as §1, §2, §3, §4, §5, §6, §7

pIC50: −log10 of the molar value.

Chain of TRKB (Q16620 32-822 limits assumed): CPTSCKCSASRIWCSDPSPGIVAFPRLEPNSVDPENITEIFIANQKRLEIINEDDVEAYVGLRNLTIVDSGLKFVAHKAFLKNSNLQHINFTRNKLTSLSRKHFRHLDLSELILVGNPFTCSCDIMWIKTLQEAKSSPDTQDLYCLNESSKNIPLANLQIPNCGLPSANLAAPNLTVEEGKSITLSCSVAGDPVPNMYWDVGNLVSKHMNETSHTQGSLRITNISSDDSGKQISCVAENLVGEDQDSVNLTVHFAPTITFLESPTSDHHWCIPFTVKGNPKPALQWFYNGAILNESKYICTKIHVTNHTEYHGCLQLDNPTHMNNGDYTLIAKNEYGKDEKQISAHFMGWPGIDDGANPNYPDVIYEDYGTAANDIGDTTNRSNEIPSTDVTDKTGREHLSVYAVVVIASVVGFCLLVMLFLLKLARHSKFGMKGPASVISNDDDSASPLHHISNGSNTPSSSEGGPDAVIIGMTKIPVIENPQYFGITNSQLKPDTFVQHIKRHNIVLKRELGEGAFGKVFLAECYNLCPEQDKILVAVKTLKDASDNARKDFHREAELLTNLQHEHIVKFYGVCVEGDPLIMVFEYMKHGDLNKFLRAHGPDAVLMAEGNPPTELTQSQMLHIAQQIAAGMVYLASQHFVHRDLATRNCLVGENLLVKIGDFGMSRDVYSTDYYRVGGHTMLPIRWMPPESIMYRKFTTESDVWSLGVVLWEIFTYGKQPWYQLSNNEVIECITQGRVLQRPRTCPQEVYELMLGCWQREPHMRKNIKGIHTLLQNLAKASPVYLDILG
Chain of MDR1 (P08183 whole entry): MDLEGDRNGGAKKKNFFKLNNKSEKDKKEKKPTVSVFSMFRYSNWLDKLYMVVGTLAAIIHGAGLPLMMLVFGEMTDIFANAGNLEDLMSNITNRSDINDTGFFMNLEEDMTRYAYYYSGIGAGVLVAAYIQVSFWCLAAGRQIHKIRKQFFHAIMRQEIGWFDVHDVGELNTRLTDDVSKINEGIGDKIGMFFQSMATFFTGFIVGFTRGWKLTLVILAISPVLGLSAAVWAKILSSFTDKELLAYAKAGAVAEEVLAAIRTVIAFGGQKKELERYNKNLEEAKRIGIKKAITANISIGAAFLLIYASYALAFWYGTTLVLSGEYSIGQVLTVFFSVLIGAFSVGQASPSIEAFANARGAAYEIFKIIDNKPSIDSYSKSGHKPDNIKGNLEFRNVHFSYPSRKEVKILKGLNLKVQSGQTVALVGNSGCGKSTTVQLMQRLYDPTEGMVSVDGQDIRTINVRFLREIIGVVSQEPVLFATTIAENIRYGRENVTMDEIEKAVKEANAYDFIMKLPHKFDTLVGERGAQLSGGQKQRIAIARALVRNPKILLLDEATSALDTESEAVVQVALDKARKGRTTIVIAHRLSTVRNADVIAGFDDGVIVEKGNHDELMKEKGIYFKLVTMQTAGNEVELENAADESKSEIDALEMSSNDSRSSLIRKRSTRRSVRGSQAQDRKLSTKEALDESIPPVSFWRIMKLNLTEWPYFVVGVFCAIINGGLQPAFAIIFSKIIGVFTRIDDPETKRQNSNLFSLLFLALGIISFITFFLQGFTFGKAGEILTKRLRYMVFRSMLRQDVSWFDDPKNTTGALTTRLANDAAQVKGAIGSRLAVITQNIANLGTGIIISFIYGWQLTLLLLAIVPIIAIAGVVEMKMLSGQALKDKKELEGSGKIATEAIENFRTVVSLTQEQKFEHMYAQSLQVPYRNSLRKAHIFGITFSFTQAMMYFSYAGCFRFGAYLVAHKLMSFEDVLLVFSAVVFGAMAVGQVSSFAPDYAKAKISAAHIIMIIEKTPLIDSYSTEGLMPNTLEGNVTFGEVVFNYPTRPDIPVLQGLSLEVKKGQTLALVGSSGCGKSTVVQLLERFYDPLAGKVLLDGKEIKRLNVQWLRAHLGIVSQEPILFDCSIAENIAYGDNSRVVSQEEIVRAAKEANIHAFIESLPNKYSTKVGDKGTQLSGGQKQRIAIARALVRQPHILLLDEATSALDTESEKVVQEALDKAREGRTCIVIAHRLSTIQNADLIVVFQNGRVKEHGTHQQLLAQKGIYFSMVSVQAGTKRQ

As to `CC(CO)n1cc(C(=O)c2cncc(NC(=O)Cn3ccc(C(F)(F)F)n3)c2)c2cnc(N)nc21` (single isomer, unassigned) [Example 38, N-(5-{[2-amino-7-(2-hydroxy-1-methylethyl)-7H-pyrrolo[2,3-d]pyrimidin-5-yl]carbonyl}pyridin-3-yl)-2-[3-(trifluoromethyl)-1H-pyrazol-1-yl]acetamide], the Papp B→A at MDR1 came to 2.1 ×10⁻⁶ cm/s. For the same compound, on MDR1, the Papp A→B is less than 1 ×10⁻⁶ cm/s. Besides, the pIC50 was 8.14 on TRKA [1], 5.97 at TRKA [2] and 6.23 at TRKB.
Take `CC(CO)n1cc(C(=O)c2cncc(NC(=O)Cn3cc(C(F)(F)F)nn3)c2)c2cnc(N)nc21` (single isomer, unassigned) [Example 39, N-(5-{[2-amino-7-(2-hydroxy-1-methylethyl)-7H-pyrrolo[2,3-d]pyrimidin-5-yl]carbonyl}pyridin-3-yl)-2-[4-(trifluoromethyl)-1H-1,2,3-triazol-1-yl]acetamide]: the Papp B→A at MDR1 is less than 1 ×10⁻⁶ cm/s. Also, at MDR1, the Papp A→B is less than 1 ×10⁻⁶ cm/s. In addition, the pIC50 on TRKA [1] was 7.62; at TRKA [2], less than 5.06; against TRKB, 5.33.
On to `CC(CO)n1cc(C(=O)c2cncc(NC(=O)Cc3ccc(F)cn3)c2)c2cnc(N)nc21` (single isomer, unassigned) [Example 40, N-(5-{[2-amino-7-(2-hydroxy-1-methylethyl)-7H-pyrrolo[2,3-d]pyrimidin-5-yl]carbonyl}pyridin-3-yl)-2-(5-fluoropyridin-2-yl)acetamide], for which the Papp B→A at MDR1 was determined as 2.4 ×10⁻⁶ cm/s. The Papp A→B on MDR1 was less than 1 ×10⁻⁶ cm/s. In addition, the pIC50 on TRKA [1] is 7.17; at TRKA [2], 5.59; on TRKB it was 6.30.
On to `CC(CO)n1cc(C(=O)c2cncc(NC(=O)Cc3ccc(Cl)cn3)c2)c2cnc(N)nc21` (single isomer, unassigned) [Example 41, N-(5-{[2-amino-7-(2-hydroxy-1-methylethyl)-7H-pyrrolo[2,3-d]pyrimidin-5-yl]carbonyl}pyridin-3-yl)-2-(5-chloropyridin-2-yl)acetamide], for which, at MDR1, the “MDCK MDR1 Papp AB” value was less than 1 ×10⁻⁶ cm/s. Also, the “MDCK MDR1 Papp BA” value on MDR1 was 6.3 ×10⁻⁶ cm/s. The figures for the pIC50 on TRKA [1], at TRKA [2] and at TRKB were 8.12, 6.69 and 7.15, respectively.
Turning to `CC(CO)n1cc(C(=O)c2cncc(NC(=O)Cn3ccc(C(F)(F)F)n3)c2)c2cnc(N)nc21` (single isomer, unassigned) [Example 44, N-(5-{[2-amino-7-(2-hydroxy-1-methylethyl)-7H-pyrrolo[2,3-d]pyrimidin-5-yl]carbonyl}pyridin-3-yl)-2-[3-(trifluoromethyl)-1H-pyrazol-1-yl]acetamide], the “MDCK MDR1 Papp AB” value at MDR1 was less than 1 ×10⁻⁶ cm/s. Besides, the “MDCK MDR1 Papp BA” value at MDR1 amounted to 1.6 ×10⁻⁶ cm/s. Further, the pIC50 is 7.92 on TRKA [1], 6.00 at TRKA [2] and 6.26 against TRKB.
For `CC(CO)n1cc(C(=O)c2cncc(NC(=O)Cn3cc(C(F)(F)F)nn3)c2)c2cnc(N)nc21` (single isomer, unassigned) [Example 45, N-(5-{[2-amino-7-(2-hydroxy-1-methylethyl)-7H-pyrrolo[2,3-d]pyrimidin-5-yl]carbonyl}pyridin-3-yl)-2-[4-(trifluoromethyl)-1H-1,2,3-triazol-1-yl]acetamide] the same measures were less than 1 ×10⁻⁶ cm/s, less than 1 ×10⁻⁶ cm/s, 7.60, less than 5.06 and 5.42.
`CC(C)(C)n1cc(C(=O)c2cncc(NC(=O)Cc3ccc(F)cn3)c2)c2cncnc21` [Example 1, N-{5-[(7-tert-Butyl-7H-pyrrolo[2,3-d]pyrimidin-5-yl)carbonyl]pyridin-3-yl}-2-(5-fluoropyridin-2-yl)acetamide]: the Papp B→A at MDR1 was 14 ×10⁻⁶ cm/s. The Papp A→B at MDR1 was 5.5 ×10⁻⁶ cm/s. Further, the figures for the pIC50 at TRKA [1], on TRKA [2] and on TRKB were 8.43, 8.02 and 8.82, respectively.
For `CC(C)(C)n1cc(C(=O)c2cncc(NC(=O)Cn3ccc(C4CC4)n3)c2)c2cncnc21` [Example 3, N-{5-[(7-tert-butyl-7H-pyrrolo[2,3-d]pyrimidin-5-yl)carbonyl]pyridin-3-yl}-2-(3-cyclopropyl-1H-pyrazol-1-yl)acetamide] the same measures were 20 ×10⁻⁶ cm/s, 8.7 ×10⁻⁶ cm/s, 8.39, 8.29 and 8.74.
For `CC(C)(C)n1cc(C(=O)c2cncc(NC(=O)Cc3ccc(Cl)cn3)c2)c2cncnc21` [Example 6, N-{5-[(7-tert-butyl-7H-pyrrolo[2,3-d]pyrimidin-5-yl)carbonyl]pyridin-3-yl}-2-(5-chloropyridin-2-yl)acetamide] the same measures were 16 ×10⁻⁶ cm/s, 6.9 ×10⁻⁶ cm/s, 8.60, 8.70 and 8.89.
For `Cc1cc(C(F)(F)F)nn1CC(=O)Nc1cncc(C(=O)c2cn([C@H](C)CO)c3ncncc23)c1` [Example 17, N-[5-({7-[(1R)-2-Hydroxy-1-methylethyl]-7H-pyrrolo[2,3-d]pyrimidin-5-yl}carbonyl)pyridin-3-yl]-2-[5-methyl-3-(trifluoromethyl)-1H-pyrazol-1-yl]acetamide] the same measures were 13 ×10⁻⁶ cm/s, less than 1 ×10⁻⁶ cm/s, 7.64, 6.99 and 7.35.
With `C[C@H](CO)n1cc(C(=O)c2cncc(NC(=O)Cn3cc(C4CC4)nn3)c2)c2cncnc21` [Example 18, 2-(4-cyclopropyl-1H-1,2,3-triazol-1-yl)-N-[5-({7-[(1R)-2-hydroxy-1-methylethyl]-7H-pyrrolo[2,3-d]pyrimidin-5-yl}carbonyl)pyridin-3-yl]acetamide], at MDR1, the Papp B→A was less than 1 ×10⁻⁶ cm/s. The Papp A→B on MDR1 was less than 1 ×10⁻⁶ cm/s. Besides, the pIC50 on TRKA [1] was 6.89; on TRKA [2], less than 5.06; on TRKB, 5.28.
For `C[C@H](CO)n1cc(C(=O)c2cncc(NC(=O)Cn3cc(C(F)(F)F)nn3)c2)c2cncnc21` [Example 21, N-[5-({7-[(1R)-2-hydroxy-1-methylethyl]-7H-pyrrolo[2,3-d]pyrimidin-5-yl}carbonyl)pyridin-3-yl]-2-[4-(trifluoromethyl)-1H-1,2,3-triazol-1-yl]acetamide], the Papp B→A on MDR1 stood at 1.3 ×10⁻⁶ cm/s. The Papp A→B on MDR1 is less than 1 ×10⁻⁶ cm/s. Moreover, the pIC50 was 7.15 on TRKA [1], 5.24 at TRKA [2] and 5.75 at TRKB.
For `C[C@H](CO)n1cc(C(=O)c2cncc(NC(=O)Cn3ccc(C(F)(F)F)n3)c2)c2cncnc21` [Example 22, N-[5-({7-[(1R)-2-hydroxy-1-methylethyl]-7H-pyrrolo[2,3-d]pyrimidin-5-yl}carbonyl)pyridin-3-yl]-2-[3-(trifluoromethyl)-1H-pyrazol-1-yl]acetamide] the same measures were 6.9 ×10⁻⁶ cm/s, less than 1 ×10⁻⁶ cm/s, 7.60, 6.22 and 6.72.
Turning to `C[C@H](CO)n1cc(C(=O)c2cncc(NC(=O)Cc3ccc(Cl)cn3)c2)c2cncnc21` [Example 23, 2-(5-chloropyridin-2-yl)-N-[5-({7-[(1R)-2-hydroxy-1-methylethyl]-7H-pyrrolo[2,3-d]pyrimidin-5-yl}carbonyl)pyridin-3-yl]acetamide], the Papp B→A on MDR1 stood at 31 ×10⁻⁶ cm/s. On MDR1, the Papp A→B was less than 1 ×10⁻⁶ cm/s. In addition, the pIC50 at TRKA [1] was 7.59; on TRKA [2], 7.03; at TRKB it was 7.28.
For `CC(C)(CO)n1cc(C(=O)c2cncc(NC(=O)Cn3cc(C4CC4)nn3)c2)c2cncnc21` [Example 31, 2-(4-cyclopropyl-1H-1,2,3-triazol-1-yl)-N-(5-{[7-(2-hydroxy-1,1-dimethylethyl)-7H-pyrrolo[2,3-d]pyrimidin-5-yl]carbonyl}pyridin-3-yl)acetamide] the same measures were 2.6 ×10⁻⁶ cm/s, less than 1 ×10⁻⁶ cm/s, 7.74, 6.40 and 6.70.
